Laboratory results reported in US20220204476A1, “RNA VIRUS INHIBITOR COMPOUNDS AND USES THEREOF” (The Governors of the University of Alberta, priority 2020, published 2022).

Legend:
SARS-CoV-2 3CLP = SARS-CoV-2 3CLP (Severe acute respiratory syndrome coronavirus 2, UniProt P0DTD1); experiment: SARS-CoV-2 3CLP inhibition, FRET-based cleavage assay; type: biochemical; conditions: 80 nM SARS-CoV-2 3CLP, 100 μM substrate, 37° C., 10 min incubation, pH 7.8; read-out: 3CL Protease IC50
SARS-CoV-2 = SARS-CoV-2 in vitro plaque reduction assay in Vero E6 cells; type: cell-based; conditions: Severe acute respiratory syndrome coronavirus 2, Vero C1008, MOI 0.0001 pfu/cell, plaques counted after 48 h, >5 μM = did not reduce plaque numbers by half at 10 μM, read-out: SARS-CoV-2 Antiviral EC50

Molecule COc1cccc2[nH]c(C(=O)N[C@@H](CC(C)C)C(=O)N[C@@H](C[C@@H]3CCNC3=O)C(=O)COC(=O)c3c(C(F)(F)F)cccc3C(F)(F)F)cc12 [Compound 25, (3S)-3-{[N-(4-methoxy-1H-indole-2-carbonyl)-L-leucyl]amino}-2-oxo-4-[(3S)-2-oxopyrrolidin-3-yl]butyl 2,6-bis(trifluoromethyl)benzoate] has an IC50 (SARS-CoV-2 3CLP) of 18 nM and an EC50 (SARS-CoV-2) of less than 250 nM.
Molecule COc1cccc2[nH]c(C(=O)N[C@@H](CC(C)C)C(=O)N[C@@H](C[C@@H]3CCNC3=O)C(=O)COC(=O)C(C)(C)C(F)(F)F)cc12 [Compound 27, (3S)-3-{[N-(4-methoxy-1H-indole-2-carbonyl)-L-leucyl]amino}-2-oxo-4-[(3S)-2-oxopyrrolidin-3-yl]butyl 3,3,3-trifluoro-2,2-dimethylpropanoate] has an IC50 (SARS-CoV-2 3CLP) of 29 nM and an EC50 (SARS-CoV-2) greater than 5000 nM.
COc1cccc2[nH]c(C(=O)N[C@@H](CC(C)C)C(=O)N[C@@H](C[C@@H]3CCCNC3=O)C(=O)COc3ccc(S(C)(=O)=O)cc3)cc12 [Compound 30, N-[(2S)-1-({(2S)-4-[4-(methanesulfonyl)phenoxy]-3-oxo-1-[(3S)-2-oxopiperidin-3-yl]butan-2-yl}amino)-4-methyl-1-oxopentan-2-yl]-4-methoxy-1H-indole-2-carboxamide] showed an IC50 (SARS-CoV-2 3CLP) of 53 nM and an EC50 (SARS-CoV-2) greater than 5000 nM.
With CC(C)C[C@H](NC(=O)OCc1ccccc1)C(=O)N[C@H](C#N)C[C@@H]1CCCNC1=O [Compound 66, N^2-[(benzyloxy)carbonyl]-N-{(1S)-1-cyano-2-[(3S)-2-oxopiperidin-3-yl]ethyl}-L-leucinamide] the IC50 (SARS-CoV-2 3CLP) was 340 nM and the EC50 (SARS-CoV-2) was greater than 5000 nM.
In the case of CC(C)C[C@H](NC(=O)OCC1c2ccccc2-c2ccccc21)C(=O)N[C@H](C#N)C[C@@H]1CCCNC1=O [Compound 67, N-{(1S)-1-cyano-2-[(3S)-2-oxopiperidin-3-yl]ethyl}-N^2-{[(9H-fluoren-9-yl)methoxy]carbonyl}-L-leucinamide], the IC50 (SARS-CoV-2 3CLP) is reported as 170 nM and the EC50 (SARS-CoV-2) is reported as 4100 nM.
In the case of COc1cc(Cl)cc2[nH]c(C(=O)N[C@@H](CC(C)C)C(=O)N[C@H](C#N)C[C@@H]3CCCNC3=O)cc12 [Compound 68, 6-chloro-N-[(2S)-1-({(1S)-1-cyano-2-[(3S)-2-oxopiperidin-3-yl]ethyl}amino)-4-methyl-1-oxopentan-2-yl]-4-methoxy-1H-indole-2-carboxamide], the IC50 (SARS-CoV-2 3CLP) is reported as 9.1 nM and the EC50 (SARS-CoV-2) is reported as 2200 nM.
For CC(C)C[C@H](NC(=O)c1nc(-c2ccccc2)c[nH]1)C(=O)N[C@H](C#N)C[C@@H]1CCCNC1=O [Compound 75, N-{(1S)-1-cyano-2-[(3S)-2-oxopiperidin-3-yl]ethyl}-N^2-(4-phenyl-1H-imidazole-2-carbonyl)-L-leucinamide], the IC50 (SARS-CoV-2 3CLP) was 160 nM and the EC50 (SARS-CoV-2) was greater than 5000 nM.
CC(C)C[C@H](NC(=O)C1(O)CCCC1)C(=O)N[C@H](C#N)C[C@@H]1CCCNC1=O [Compound 76, N-{(1S)-1-cyano-2-[(3S)-2-oxopiperidin-3-yl]ethyl}-N^2-(1-hydroxycyclopentane-1-carbonyl)-L-leucinamide] showed an IC50 (SARS-CoV-2 3CLP) of 950 nM and an EC50 (SARS-CoV-2) greater than 5000 nM.
CC(C)C[C@H](NCC1CC1)C(=O)N[C@H](C#N)C[C@@H]1CCCNC1=O [Compound 77, N-{(1S)-1-cyano-2-[(3S)-2-oxopiperidin-3-yl]ethyl}-N^2-(cyclopropylmethyl)-L-leucinamide] gave an IC50 (SARS-CoV-2 3CLP) of 17000 nM and an EC50 (SARS-CoV-2) greater than 5000 nM.
Molecule CC(C)C[C@H](NCc1ccc[nH]c1=O)C(=O)N[C@H](C#N)C[C@@H]1CCCNC1=O [Compound 78, N-{(1S)-1-cyano-2-[(3S)-2-oxopiperidin-3-yl]ethyl}-N^2-[(2-oxo-1,2-dihydropyridin-3-yl)methyl]-L-leucinamide] has an IC50 (SARS-CoV-2 3CLP) of 47000 nM and an EC50 (SARS-CoV-2) greater than 5000 nM.
Molecule CC(C)C[C@H](NC(=O)c1cc2ccccc2o1)C(=O)N[C@H](C#N)C[C@@H]1CCCNC1=O [Compound 79, N-[(2S)-1-({(1S)-1-cyano-2-[(3S)-2-oxopiperidin-3-yl]ethyl}amino)-4-methyl-1-oxopentan-2-yl]-1-benzofuran-2-carboxamide] has an IC50 (SARS-CoV-2 3CLP) of 250 nM and an EC50 (SARS-CoV-2) of 4500 nM.
In the case of CC(C)C[C@H](NC(=O)[C@H]1CCCO1)C(=O)N[C@H](C#N)C[C@@H]1CCCNC1=O [Compound 80, N-{(1S)-1-cyano-2-[(3S)-2-oxopiperidin-3-yl]ethyl}-N^2-[(2R)-oxolane-2-carbonyl]-L-leucinamide], the IC50 (SARS-CoV-2 3CLP) is reported as 710 nM and the EC50 (SARS-CoV-2) is reported as greater than 5000 nM.
Cc1ccc(C(=O)N[C@@H](CC(C)C)C(=O)N[C@H](C#N)C[C@@H]2CCCNC2=O)cn1 [Compound 81, N-{(1S)-1-cyano-2-[(3S)-2-oxopiperidin-3-yl]ethyl}-N^2-(6-methylpyridine-3-carbonyl)-L-leucinamide] gave an IC50 (SARS-CoV-2 3CLP) of 620 nM and an EC50 (SARS-CoV-2) greater than 5000 nM.
With CC(C)C[C@H](NS(=O)(=O)c1cccc2c1OCCO2)C(=O)N[C@H](C#N)C[C@@H]1CCCNC1=O [Compound 82, N-{(1S)-1-cyano-2-[(3S)-2-oxopiperidin-3-yl]ethyl}-N^2-(2,3-dihydro-1,4-benzodioxine-5-sulfonyl)-L-leucinamide] the IC50 (SARS-CoV-2 3CLP) was 2400 nM and the EC50 (SARS-CoV-2) was greater than 5000 nM.
For CC(C)C[C@H](NS(=O)(=O)N1CCCCC1)C(=O)N[C@H](C#N)C[C@@H]1CCCNC1=O [Compound 83, N-{(1S)-1-cyano-2-[(3S)-2-oxopiperidin-3-yl]ethyl}-N^2-(piperidine-1-sulfonyl)-L-leucinamide], the IC50 (SARS-CoV-2 3CLP) was 4500 nM and the EC50 (SARS-CoV-2) was greater than 5000 nM.
In the case of CC(C)C[C@H](NS(=O)(=O)C1CCCCC1)C(=O)N[C@H](C#N)C[C@@H]1CCCNC1=O [Compound 84, N-{(1S)-1-cyano-2-[(3S)-2-oxopiperidin-3-yl]ethyl}-N^2-(cyclohexanesulfonyl)-L-leucinamide], the IC50 (SARS-CoV-2 3CLP) is reported as 3100 nM and the EC50 (SARS-CoV-2) is reported as greater than 5000 nM.
Cc1ccc(S(=O)(=O)N[C@@H](CC(C)C)C(=O)N[C@H](C#N)C[C@@H]2CCCNC2=O)cn1 [Compound 85, N-{(1S)-1-cyano-2-[(3S)-2-oxopiperidin-3-yl]ethyl}-N^2-(6-methylpyridine-3-sulfonyl)-L-leucinamide] gave an IC50 (SARS-CoV-2 3CLP) of 6400 nM and an EC50 (SARS-CoV-2) greater than 5000 nM.
Work on CC(C)(C)C[C@H](NC(=O)OCC1c2ccccc2-c2ccccc21)C(=O)N[C@H](C#N)C[C@@H]1CCCNC1=O [Compound 86, N-{(1S)-1-cyano-2-[(3S)-2-oxopiperidin-3-yl]ethyl}-N^2-{[(9H-fluoren-9-yl)methoxy]carbonyl}-4-methyl-L-leucinamide] yielded an IC50 (SARS-CoV-2 3CLP) of 110 nM and an EC50 (SARS-CoV-2) of 4300 nM.
Cc1cc(C)c(C(=O)OCC(=O)[C@H](C[C@@H]2CCCNC2=O)NC(=O)[C@H](CC(C)(C)C)NC(=O)[C@H]2CCCO2)c(C)n1 [Compound 87, (3S)-3-({4-methyl-N-[(2R)-oxolane-2-carbonyl]-L-leucyl}amino)-2-oxo-4-[(3S)-2-oxopiperidin-3-yl]butyl 2,4,6-trimethylpyridine-3-carboxylate] gave an IC50 (SARS-CoV-2 3CLP) of 200 nM and an EC50 (SARS-CoV-2) of 1900 nM.
For CC(C)(C)C[C@H](NC(=O)c1nc2ccccc2[nH]1)C(=O)N[C@H](C#N)C[C@@H]1CCCNC1=O [Compound 88, N-[(2S)-1-({(1S)-1-cyano-2-[(3S)-2-oxopiperidin-3-yl]ethyl}amino)-4,4-dimethyl-1-oxopentan-2-yl]-1H-benzimidazole-2-carboxamide], the IC50 (SARS-CoV-2 3CLP) was 40 nM and the EC50 (SARS-CoV-2) was greater than 5000 nM.
With CC(C)(C)C[C@H](NC(=O)[C@@H]1CCCN1C(=O)OCc1ccccc1)C(=O)N[C@H](C#N)C[C@@H]1CCCNC1=O [Compound 89, 1-[(benzyloxy)carbonyl]prolyl-N-{(1S)-1-cyano-2-[(3S)-2-oxopiperidin-3-yl]ethyl}-4-methyl-L-leucinamide] the IC50 (SARS-CoV-2 3CLP) was 2800 nM and the EC50 (SARS-CoV-2) was greater than 5000 nM.
